From patent US20220055989A1, “CONDENSED PYRROLES AS NOVEL BROMODOMAIN INHIBITORS” (ALBERT LUDWING UNIVERSITÄT FREIBURG, priority 2018, published 2022)

Tests used:
GCN5L2 = target: T1, GCN5L2 (Homo sapiens, UniProt Q92830); assay: BROMOscan Kd determination GCN5L2; assay type: binding
T1 construct: T7 phage strains displaying bromodomains were grown in parallel; host or cells: T7 phage grown in E. coli host derived from BL21
Protocol: (§1) Bromodomain profiling was carried out on the basis of BROMOscan™. This platform accounted for the indirect determination of the dissociation constants between 19 bromodomains and the compound of formula (13), by binding competition against a reference immobilized ligand. Compounds that bind the bromodomain prevent its binding to the immobilized ligand thus reducing the amount of protein captured. […] Hits are identified by measuring the amount of bromodomain captured in test versus control samples. Bromodomain assays for Kd determination: T7 phage strains displaying bromodomains were grown in parallel in 24-well blocks in an E. coli host derived from the BL21 strain. E. coli were grown to log-phase and infected with T7 phage from a frozen stock (multiplicity of infection=0.4) and incubated with shaking at 32° C. until lysis (90-150 minutes). The lysates were centrifuged (5,000×g) and filtered (0.2 μm) to remove cell debris. […] Kds were determined using an 11-point 3-fold compound dilution series with one DMSO control point. […] The bromodomain concentration in the eluates was measured by qPCR. […] Most Kds were determined using a compound top concentration=10,000 nM. […] Binding Constants (Kds): Binding constants (Kds) were calculated with a standard dose-response curve using the Hill equation: The Hill Slope was set to −1. […]

BRD3(1, 2) = target: T2, BRD3(1, 2) (Homo sapiens, UniProt Q15059); assay: BROMOscan Kd determination BRD3(1, 2); assay type: binding
T2 construct: T7 phage strains displaying bromodomains were grown in parallel; made in house; host or cells: T7 phage grown in an E. coli host derived from the BL21 strain
T2 sequence (Q15059 24-416 limits assumed): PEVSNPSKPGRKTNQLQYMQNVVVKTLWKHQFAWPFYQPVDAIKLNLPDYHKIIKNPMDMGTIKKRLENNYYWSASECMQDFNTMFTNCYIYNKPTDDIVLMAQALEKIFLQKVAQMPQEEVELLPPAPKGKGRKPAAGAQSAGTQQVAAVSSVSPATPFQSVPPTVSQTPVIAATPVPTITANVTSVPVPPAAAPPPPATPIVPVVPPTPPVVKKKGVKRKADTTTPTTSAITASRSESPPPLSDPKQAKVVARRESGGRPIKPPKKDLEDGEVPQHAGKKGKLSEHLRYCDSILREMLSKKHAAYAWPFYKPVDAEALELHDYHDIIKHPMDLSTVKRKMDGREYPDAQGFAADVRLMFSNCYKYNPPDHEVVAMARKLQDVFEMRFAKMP
Protocol: as §1

BAZ2B [1] = target: T3, BAZ2B (Homo sapiens, UniProt Q9UIF8); assay: BROMOscan Kd determination BAZ2B; assay type: binding
T3 construct: T7 phage strains displaying bromodomains were grown in parallel; made in house; host or cells: T7 phage grown in an E. coli host derived from the BL21 strain
T3 sequence (Q9UIF8 2060-2164 limits assumed): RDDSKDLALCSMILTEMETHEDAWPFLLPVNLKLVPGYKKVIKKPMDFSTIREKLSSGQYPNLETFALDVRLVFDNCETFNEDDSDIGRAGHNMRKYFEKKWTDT
Protocol: as §1

PCAF = target: T4, PCAF (Homo sapiens, UniProt Q92831); assay: BROMOscan Kd determination PCAF; assay type: binding
T4 construct: T7 phage strains displaying bromodomains were grown in parallel; host or cells: T7 phage grown in E. coli host derived from BL21
T4 sequence (Q92831 723-827 limits assumed): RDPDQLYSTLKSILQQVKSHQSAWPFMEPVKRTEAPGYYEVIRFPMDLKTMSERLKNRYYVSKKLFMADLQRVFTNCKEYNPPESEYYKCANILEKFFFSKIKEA
Protocol: as §1

BRPF3 = target: T5, BRPF3 (Homo sapiens, UniProt Q9ULD4); assay: BROMOscan Kd determination BRPF3; assay type: binding
T5 construct: T7 phage strains displaying bromodomains were grown; host or cells: T7 phage in E. coli derived from BL21
T5 sequence (Q9ULD4 589-693 limits assumed): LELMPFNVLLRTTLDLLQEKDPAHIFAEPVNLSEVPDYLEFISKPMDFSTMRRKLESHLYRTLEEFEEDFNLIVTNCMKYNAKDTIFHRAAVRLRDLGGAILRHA
Protocol: as §1

PBRM1(2) = target: T6, PBRM1(2) (Homo sapiens, UniProt Q86U86); assay: BROMOscan Kd determination PBRM1(2); assay type: binding
T6 construct: FALZ, PBRM1-BD2, BPRM1-BDS, TAF1-BD2, TAF1L-BD2; host or cells: T7 phage grown in E. coli host derived from BL21
T6 sequence (Q86U86 177-287 limits assumed): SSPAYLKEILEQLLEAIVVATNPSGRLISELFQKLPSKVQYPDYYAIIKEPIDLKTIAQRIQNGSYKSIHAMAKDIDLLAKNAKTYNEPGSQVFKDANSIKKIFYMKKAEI
Protocol: as §1

EP300 = target: T7, EP300 (Homo sapiens, UniProt Q09472); assay: BROMOscan Kd determination EP300; assay type: binding
T7 construct: T7 phage strains displaying bromodomains were grown; host or cells: T7 phage in E. coli derived from BL21
T7 sequence (Q09472 1049-1156 limits assumed): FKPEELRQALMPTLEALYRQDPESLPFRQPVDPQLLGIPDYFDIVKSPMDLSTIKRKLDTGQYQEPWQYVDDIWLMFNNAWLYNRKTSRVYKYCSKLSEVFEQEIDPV
Protocol: Bromodomain profiling was carried out on the basis of BROMOscan™. This platform accounted for the indirect determination of the dissociation constants between 19 bromodomains and the compound of formula (13), by binding competition against a reference immobilized ligand. Compounds that bind the bromodomain prevent its binding to the immobilized ligand thus reducing the amount of protein captured. […] Hits are identified by measuring the amount of bromodomain captured in test versus control samples. Bromodomain assays for Kd determination: T7 phage strains displaying bromodomains were grown in parallel in 24-well blocks in an E. coli host derived from the BL21 strain. E. coli were grown to log-phase and infected with T7 phage from a frozen stock (multiplicity of infection=0.4) and incubated with shaking at 32° C. until lysis (90-150 minutes). The lysates were centrifuged (5,000×g) and filtered (0.2 μm) to remove cell debris. […] The liganded beads were blocked with excess biotin and washed with blocking buffer (SeaBlock (Pierce), 1% BSA, 0.05% Tween 20, 1 mM DTT) to remove unbound ligand and to reduce non-specific phage binding. […] Test compounds were prepared as 1000× stocks in 100% DMSO. Kds were determined using an 11-point 3-fold compound dilution series with one DMSO control point. All compounds for Kd measurements are distributed by acoustic transfer (non-contact dispensing) in 100% DMSO. The compounds were then diluted directly into the assays such that the final concentration of DMSO was 0.09%. All reactions performed in polypropylene 384-well plates. Each was a final volume of 0.02 ml. […] The bromodomain concentration in the eluates was measured by qPCR. […] All compounds for Kd measurements are distributed by acoustic transfer (non-contact dispensing) in 100% DMSO. The compounds were then diluted directly into the assays such that the final concentration of DMSO was 0.09%. Most Kds were determined using a compound top concentration=10,000 nM. If the initial Kd determined was <0.169 nM (the lowest concentration tested), the measurement was repeated with a serial dilution starting at a lower top concentration. Binding Constants (Kds): Binding constants (Kds) were calculated with a standard dose-response curve using the Hill equation: The Hill Slope was set to −1. Curves were fitted using a non-linear least square fit with the Levenberg-Marquardt algorithm.

TAF1L(2) = target: T8, TAF1L(2) (Homo sapiens, UniProt Q8IZX4); assay: Bromodomain assay % Ctrl determination TAF1L(2); settings: lower numbers indicate a stronger binding
T8 construct: FALZ, PBRM1-BD2, BPRM1-BDS, TAF1-BD2, TAF1L-BD2; host or cells: T7 phage grown in E. coli host derived from BL21
T8 sequence (Q8IZX4 1517-1626 limits assumed): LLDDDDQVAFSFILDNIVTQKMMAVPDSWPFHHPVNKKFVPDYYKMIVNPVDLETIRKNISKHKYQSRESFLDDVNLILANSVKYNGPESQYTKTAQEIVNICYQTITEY
Protocol: (§2) Compounds that bind the bromodomain prevent its binding to the immobilized ligand thus reducing the amount of protein captured. […] Hits are identified by measuring the amount of bromodomain captured in test versus control samples. Bromodomain assays for % Ctrl determination: T7 phage strains displaying bromodomains were grown in parallel in 24-well blocks in an E. coli host derived from the BL21 strain. E. coli were grown to log-phase and infected with T7 phage from a frozen stock (multiplicity of infection=0.4) and incubated with shaking at 32° C. until lysis (90-150 minutes). The lysates were centrifuged (5,000×g) and filtered (0.2 μm) to remove cell debris. […] The liganded beads were blocked with excess biotin and washed with blocking buffer (SeaBlock (Pierce), 1% BSA, 0.05% Tween 20, 1 mM DTT) to remove unbound ligand and to reduce non-specific phage binding. […] Test compounds were prepared as 1000× stocks in 100% DMSO and subsequently diluted 1:25 in monoethylene glycol (MEG). The compounds were then diluted directly into the assays such that the final concentrations of DMSO and MEG were 0.1% and 2.4%, respectively. All reactions were performed in polypropylene 384-well plates in a final volume of 0.02 ml. […] The bromodomain concentration in the eluates was measured by qPCR. […]

BRDT(2) = target: T9, BRDT(2) (Homo sapiens, UniProt Q58F21); assay: Bromodomain assay % Ctrl determination BRDT(2); settings: lower numbers indicate a stronger binding
T9 construct: T7 phage strains displaying bromodomains were grown; host or cells: T7 phage in E. coli derived from BL21
Protocol: as §2

WDR9(2) = target: T10, WDR9(2) (Homo sapiens, UniProt Q9NSI6); assay: Bromodomain assay % Ctrl determination WDR9(2); settings: lower numbers indicate a stronger binding
T10 construct: T7 phage strains displaying bromodomains were grown in parallel; host or cells: T7 phage grown in E. coli host derived from BL21
T10 sequence (Q9NSI6 1313-1418 limits assumed): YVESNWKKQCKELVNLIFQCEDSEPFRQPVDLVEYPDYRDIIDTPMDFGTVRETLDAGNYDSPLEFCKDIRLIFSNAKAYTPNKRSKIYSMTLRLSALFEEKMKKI
Protocol: as §2

TRIM24(PHD, Bromo) = target: T11, TRIM24(PHD, Bromo) (Homo sapiens, UniProt O15164); assay: Bromodomain assay % Ctrl determination TRIM24(PHD, Bromo); settings: lower numbers indicate a stronger binding
T11 construct: T7 phage strains displaying bromodomains were grown in parallel; host or cells: T7 phage grown in E. coli host derived from BL21
T11 sequence (O15164 824-1006 limits assumed): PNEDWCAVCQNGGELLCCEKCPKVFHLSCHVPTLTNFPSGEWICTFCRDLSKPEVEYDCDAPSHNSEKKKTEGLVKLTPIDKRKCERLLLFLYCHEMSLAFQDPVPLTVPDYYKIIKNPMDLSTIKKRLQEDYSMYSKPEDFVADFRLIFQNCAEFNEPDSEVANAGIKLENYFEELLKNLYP
Protocol: as §2

PBRM1(5) = target: T12, PBRM1(5) (Homo sapiens, UniProt Q86U86); assay: Bromodomain assay % Ctrl determination PBRM1(5); settings: lower numbers indicate a stronger binding
T12 construct: T7 phage strains displaying bromodomains were grown in parallel; host or cells: T7 phage grown in E. coli host derived from BL21
T12 sequence (Q86U86 653-763 limits assumed): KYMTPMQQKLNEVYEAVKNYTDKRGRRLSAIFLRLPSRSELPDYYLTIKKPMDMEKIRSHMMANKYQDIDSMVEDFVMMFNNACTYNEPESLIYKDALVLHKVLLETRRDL
Protocol: as §2

TAF1(2) = target: T13, TAF1(2) (Homo sapiens, UniProt P21675); assay: Bromodomain assay % Ctrl determination TAF1(2); settings: lower numbers indicate a stronger binding
T13 construct: FALZ, PBRM1-BD2, BPRM1-BDS, TAF1-BD2, TAF1L-BD2; host or cells: T7 phage grown in E. coli host derived from BL21
T13 sequence (P21675 1519-1628 limits assumed): as the sequence (Q8IZX4 1517-1626 limits assumed) above, with M46V, V51M, I102V, I107L counted along it
Protocol: as §2

BAZ2B [2] = target: T3, BAZ2B; assay: Bromodomain assay % Ctrl determination BAZ2B; settings: lower numbers indicate a stronger binding
Protocol: as §2

CREBBP = target: T14, CREBBP (Homo sapiens, UniProt Q92793); assay: Bromodomain assay % Ctrl determination CREBBP; settings: lower numbers indicate a stronger binding
T14 construct: T7 phage strains displaying bromodomains were grown; host or cells: T7 phage in E. coli derived from BL21
T14 sequence (Q92793 1085-1192 limits assumed): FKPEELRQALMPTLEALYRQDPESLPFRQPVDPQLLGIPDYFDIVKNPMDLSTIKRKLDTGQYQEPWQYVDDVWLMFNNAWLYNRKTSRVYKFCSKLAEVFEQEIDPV
Protocol: as §2

BRD4(1) = target: T15, BRD4(1) (Homo sapiens, UniProt O60885); assay: Bromodomain assay % Ctrl determination BRD4(1); settings: lower numbers indicate a stronger binding
T15 construct: BRD4-BD1 was expressed and purified as described previously; made in house
Protocol: as §2

T1 sequence (Q92830 728-832 limits assumed): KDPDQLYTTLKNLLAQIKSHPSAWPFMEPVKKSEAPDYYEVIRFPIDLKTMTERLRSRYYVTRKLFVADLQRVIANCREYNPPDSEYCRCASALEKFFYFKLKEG

Kd (GCN5L2) [µM] | Kd (BRD3(1, 2)) [nM] | Kd (BAZ2B [1]) [nM] | Kd (PCAF) [µM] | Kd (BRPF3) [µM] | Kd (PBRM1(2)) [µM] | Kd (EP300) [nM] | % Ctrl @ 10 000 nM TAF1L(2) (TAF1L(2)) [% Ctrl] | % Ctrl @ 10 000 nM BRDT(2) (BRDT(2)) [% Ctrl] | % Ctrl @ 10 000 nM WDR9(2) (WDR9(2)) [% Ctrl] | % Ctrl @ 10 000 nM TRIM24(PHD, Bromo) (TRIM24(PHD, Bromo)) [% Ctrl] | % Ctrl @ 10 000 nM PBRM1(5) (PBRM1(5)) [% Ctrl] | % Ctrl @ 10 000 nM TAF1(2) (TAF1(2)) [% Ctrl] | % Ctrl @ 10 000 nM BAZ2B (BAZ2B [2]) [% Ctrl] | % Ctrl @ 10 000 nM CREBBP (CREBBP) [% Ctrl] | % Ctrl @ 10 000 nM BRD4(1) (BRD4(1)) [% Ctrl] | SMILES
> 10 | 100 | 1800 | > 10 | 6 | 4.2 | 1200 | – | – | – | – | – | – | – | – | – | Cc1[nH]c(-c2cc(N)ccc2Cl)c2c1C(=O)CCCC2 [Compound 23]
– | – | – | – | – | – | – | 40 | 0.65 | 81 | 82 | 90 | 7.4 | 6.8 | 4.7 | 0 | COc1ccc(S(=O)(=O)N2CCOCC2)cc1NC(=O)c1[nH]c(C)c2c1CCCCC2=O [Compound 13, N-(2-methoxy-5-(morpholinosulfonyl)phenyl)-3-methyl-4-oxo-2,4,5,6,7,8-hexahydrocyclohepta[c]pyrrole-1-carboxamide]
